According to patent US4914127A, “3-Demethylmevalonic acid derivatives, a process for their preparation pharmaceutical products based on these compounds, their use and intermediates” (Hoechst Aktiengesellschaft, priority 1985, dated 1990):
Like-named read-outs stand apart in the source and are kept apart here.

How the values were obtained:
HMG-CoA reductase = biological target: T1, HMG-CoA reductase (Rattus norvegicus, UniProt P51639); assay: HMG-CoA reductase activity in solubilized enzyme preparations from liver microsomes of rats; format: biochemical; conditions: 14C-HMG-CoA substrate, mean from 3 parallel samples, read-out: IC50 [M], inhibition of HMG-CoA reductase
T1 construct: solubilized enzyme preparations from liver microsomes of rats; from tissue; host or cells: liver microsomes of cholestyramine-induced rats
T1 sequence (P51639 1-887): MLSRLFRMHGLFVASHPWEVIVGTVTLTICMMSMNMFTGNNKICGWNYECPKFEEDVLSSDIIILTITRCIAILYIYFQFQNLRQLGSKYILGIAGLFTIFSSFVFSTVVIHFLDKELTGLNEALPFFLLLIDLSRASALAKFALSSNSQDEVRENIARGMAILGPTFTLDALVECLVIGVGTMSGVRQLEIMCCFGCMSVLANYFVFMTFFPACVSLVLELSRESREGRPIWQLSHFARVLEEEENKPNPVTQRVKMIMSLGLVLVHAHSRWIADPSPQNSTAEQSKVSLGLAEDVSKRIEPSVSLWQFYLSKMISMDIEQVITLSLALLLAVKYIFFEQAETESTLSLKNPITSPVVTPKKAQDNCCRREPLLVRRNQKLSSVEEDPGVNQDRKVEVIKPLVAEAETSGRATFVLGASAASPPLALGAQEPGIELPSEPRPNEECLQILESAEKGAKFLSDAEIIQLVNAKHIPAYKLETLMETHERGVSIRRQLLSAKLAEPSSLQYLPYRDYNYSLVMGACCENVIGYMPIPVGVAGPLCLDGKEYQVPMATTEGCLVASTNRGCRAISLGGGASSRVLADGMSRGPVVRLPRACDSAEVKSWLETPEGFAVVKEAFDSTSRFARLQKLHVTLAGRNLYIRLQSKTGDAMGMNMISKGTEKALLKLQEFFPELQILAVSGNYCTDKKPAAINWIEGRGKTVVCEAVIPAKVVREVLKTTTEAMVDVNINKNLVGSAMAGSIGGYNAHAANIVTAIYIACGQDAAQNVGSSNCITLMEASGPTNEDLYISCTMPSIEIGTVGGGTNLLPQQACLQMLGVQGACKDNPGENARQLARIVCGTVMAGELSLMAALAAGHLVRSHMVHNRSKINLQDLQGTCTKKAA
Method: 1. HMG-CoA reductase activity in enzyme preparations
The HMG-CoA reductase activity was measured on solubilized enzyme preparations from liver microsomes of rats which, after the day/night rhythm had been changed, were induced with cholestyramine (®Cuemid). The substrate used was (S,R) ^14 C-HMG-CoA, and the concentration of NADPH was maintained during the incubation by a regenerating system. ^14 C-Mevalonate was removed from the substrate and other products (for example ^14 C-HMG) by column elution, the elution profile for each individual sample being determined. Constant inclusion of ^3 H-mevalonate was dispensed with because the determination was of the relative inhibitory effect. In each series of tests, the control containing no enzyme, and the normal mixture containing enzyme (=100%) and those with added products, final concentration 10^-5 to 10^-9 M, were treated together. Each individual figure was formed as the mean from 3 parallel samples. The signficance of the differences in the means between samples containing no product and those containing product was assessed by the t test.
Using the method described above, the following figures for the inhibition of HMG-CoA reductase were determined for the compounds according to the invention, for example: […]

[1] = tested on: 3-hydroxy-3-methylglutaryl-coenzyme-A reductase (HMG-CoA reductase); conditions: in words; cited from earlier work
[2] = biological target: T2, HMG-CoA reductase (in HEP-G2 cells) (Homo sapiens, UniProt P04035); assay: Suppression or inhibition of HMG-CoA reductase in cell cultures (HEP-G2 cells; method described for fibroblasts, L cells); format: cell-based
T2 construct: endogenous in cells; host or cells: HEP-G2 cells
T2 sequence (P04035 1-888): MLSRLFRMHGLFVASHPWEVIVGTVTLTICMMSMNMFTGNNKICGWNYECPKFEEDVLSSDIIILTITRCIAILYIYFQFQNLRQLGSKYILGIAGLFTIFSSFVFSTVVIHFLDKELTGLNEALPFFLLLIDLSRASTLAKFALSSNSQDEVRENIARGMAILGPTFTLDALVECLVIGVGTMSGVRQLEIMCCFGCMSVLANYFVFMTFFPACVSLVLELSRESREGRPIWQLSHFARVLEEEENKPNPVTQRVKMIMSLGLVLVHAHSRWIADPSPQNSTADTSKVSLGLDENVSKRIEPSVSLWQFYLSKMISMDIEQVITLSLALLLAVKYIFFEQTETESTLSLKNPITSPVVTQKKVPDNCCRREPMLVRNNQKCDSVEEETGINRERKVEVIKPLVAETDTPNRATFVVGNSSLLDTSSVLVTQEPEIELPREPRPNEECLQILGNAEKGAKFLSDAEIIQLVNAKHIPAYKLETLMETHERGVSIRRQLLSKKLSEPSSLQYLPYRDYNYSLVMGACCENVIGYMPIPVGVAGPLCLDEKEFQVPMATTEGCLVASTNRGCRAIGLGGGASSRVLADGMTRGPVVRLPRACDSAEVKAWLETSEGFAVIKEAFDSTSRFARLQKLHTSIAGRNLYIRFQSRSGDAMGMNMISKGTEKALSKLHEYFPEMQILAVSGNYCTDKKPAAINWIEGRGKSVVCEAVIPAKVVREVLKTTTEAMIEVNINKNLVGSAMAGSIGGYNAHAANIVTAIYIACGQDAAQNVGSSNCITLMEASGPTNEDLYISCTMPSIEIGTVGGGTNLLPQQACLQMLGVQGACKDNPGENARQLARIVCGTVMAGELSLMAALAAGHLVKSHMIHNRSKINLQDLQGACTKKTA
Method: 2. Suppression or inhibition of HMG-CoA reductase in cell cultures of fibroblasts.
Monolayers of fibroblasts (L cells) in lipoprotein-free nutrient medium were incubated with appropriate concentrations of test substances for a specified period (for example 3 hours) and then the HMG-CoA reductase activity of the cells was determined by modification of the method of Chang et al. (J. Biol. Chem. 256, 6174 (1981)). For this purpose, the cell extracts were incubated with D,L-[^3 H]-HMG-CoA, and the product [^3 H]-mevalonate formed from the cells by the action of the HMG-CoA reductase activity present was, after cyclization to [^3 H]-mevalonolactone, separated from the starting material by thin-layer chromatography and, by use of an internal standard of [^14 C]-mevalonate, the amount of [^3 H]-mevalonate formed in unit time was determined and related to the amount of cellular protein.

[3] = in human trials; cited from earlier work
[4] = in the rat; cited from earlier work

Work on `O=C1C[C@H](O)C[C@@H](/C=C/c2ccccc2Cc2ccc(Cl)cc2)O1` [16 l] yielded an IC50 (HMG-CoA reductase) of 8e-07 M.
In the case of `CC[C@H](C)C(=O)O[C@H]1CCC=C2C=C[C@H](C)[C@H](CC[C@@H]3C[C@@H](O)CC(=O)O3)[C@H]21` [Compactin], the “inhibition of HMG-CoA reductase” value [1] is listed as “inhibition”.
`Cc1cccc(Cc2ccc(Cl)cc2)c1/C=C/[C@@H]1C[C@@H](O)CC(=O)O1` [16 y] showed an IC50 (HMG-CoA reductase) of 2.8e-07 M.
Compound `O=C1C[C@H](O)C[C@@H](/C=C/c2c(Cl)cccc2Cc2ccc(Cl)cc2)O1` [16 ab] has an IC50 [2] of 210000 nM and an IC50 (HMG-CoA reductase) of 2.3e-07 M.
`Cc1cccc(CCC2CCCCC2)c1/C=C/[C@@H]1C[C@@H](O)CC(=O)O1` [16 u] gave an IC50 [2] of 200000 nM and an IC50 (HMG-CoA reductase) of 6.5e-07 M.
For `O=C1C[C@H](O)C[C@@H](/C=C/c2c(Cl)cccc2CC2CCCCC2)O1` [16 ac], the IC50 [2] was 3200 nM and the IC50 (HMG-CoA reductase) was 7.1e-08 M.
For `CC(O)(CC(=O)O)CC(=O)O` [3-Hydroxy-3-methylglutaric acid], the cholesterol-lowering action [3] is given as “significant cholesterol-lowering action” and the cholesterol-lowering action [4] is given as “significant cholesterol-lowering action”.
With `O=C1C[C@H](O)C[C@@H](/C=C/c2c(Cl)cc(Cl)cc2CC2CCCCC2)O1` [16 z] the IC50 [2] was 1900 nM and the IC50 (HMG-CoA reductase) was 1.9e-08 M.
Work on `O=C1C[C@H](O)C[C@@H](/C=C/c2ccccc2CCc2ccc(F)cc2)O1` [16 g] yielded an IC50 [2] of 500000 nM and an IC50 (HMG-CoA reductase) of 9e-07 M.
In the case of `O=C1C[C@H](O)C[C@@H](/C=C/c2ccccc2CC2CCCCC2)O1` [16 j], the IC50 [2] is reported as 380000 nM and the IC50 (HMG-CoA reductase) is reported as 9e-08 M.
